Test results from US7618990B2, “Oxazolidone derivatives as PR modulators” (Wyeth, priority 2006, dated 2009).

Tests used:
[1] = tested on: alkaline phosphatase activity in T47D cells; test: Effects of progestins and antiprogestins on alkaline phosphatase activity in T47D cells (antagonist mode); type: cell-based; conditions: Homo sapiens, in the presence of 1 nM progesterone, read-out: T47D Alkaline Phosphatase Activity IC50 (nM) or % inhibition; for IC50: 24 h; for inhibition at 3 µM: % inhibition at 3000 nM
Experimental: (1) Effects of Progestins and Antiprogestins on Alkaline Phosphatase Activity in T47D Cells
PURPOSE: To identify progestins or antiprogestins by determining a compound's effect on alkaline phosphatase activity in T47D cells.
Culture Medium: • DMEM:F12 (1:1) (GIBCO, BRL) supplemented with 5% (v/v) charcoal stripped fetal bovine serum (not heat-inactivated), 100 U/mL penicillin, 100 μg/mL streptomycin, and 2 mM the GlutaMax™ reagent (GIBCO, BRL).
Alkaline Phosphatase Assay Buffer: • I. 0.1M Tris-HCl, pH 9.8, containing 0.2% the Triton® X-100 reagent • II. 0.1M Tris-HCl, pH 9.8, containing 4 mM p-nitrophenyl phosphate (Sigma). B. Cell Culture and Treatment:
Frozen T47D cells were thawed in a 37° C. water bath and diluted to 280,000 cells/mL in culture medium. To each well in a 96-well plate (Falcon, Becton Dickinson Labware), 180 μL of diluted cell suspension was added.
Twenty μL of reference or test compounds diluted in the culture medium was then added to each well. When testing for progestin antagonist activity, reference antiprogestins or test compounds were added in the presence of 1 nM progesterone. The cells were incubated at 37° C. in a 5% CO2/humidified atmosphere for 24 h.
NOTE: For high throughput screening, one concentration of each compound was tested at 0.3 μg/mL. Based on an average molecular weight of 300 g/mol for the compounds in the library, the concentration was approximately 1 μM. Subsequently, active compounds were tested in dose response assays to determine EC50 and IC50. C. Alkaline Phosphatase Enzyme Assay:
At the end of treatment, the medium was removed from the plate. Fifty μL of assay buffer I was added to each well. The plates were shaken in a titer plate shaker for 15 min. Then 150 μL of assay buffer II was added to each well. Optical density measurements were taken at 5 min intervals for 30 min at a test wavelength of 405 nm.
For reference and test compounds, a dose response curve was generated for dose (X-axis) vs. the rate of enzyme reaction (slope) (Y-axis). Square root-transformed data was used for analysis of variance and nonlinear dose response curve fitting for both agonist and antagonist modes. Huber weighting was used to down-weight the effects of outliers. EC50 or IC50 values were calculated from the retransformed values. JMP software (SAS Institute, Inc.) was used for both one-way analysis of variance and non-linear dose response analysis in both single dose and dose response studies.
Progesterone and trimegestone were reference progestins and RU486 was the reference antiprogestin. All reference compounds were run in full dose response curves and the EC50 and IC50 values were calculated.

| Compound | IC50 [1] | melting point | inhibition at 3 µM [1] | inhibition at 0.003 µM ([1]; % inhibition at 3 nM) |
| --- | --- | --- | --- | --- |
| O=C1OCC2(CC2)N1c1nc(-c2ccc(Br)cc2)cs1 [Example 24, 4-[4-(4-Bromophenyl)-1,3-thiazol-2-yl]-6-oxa-4-azaspiro[2.4]heptane-5-one] | 292 nM | 201 to 202 °C | – | – |
| CC1CN(c2nc(-c3ccc(Br)cc3)cs2)C(=O)O1 (centres unmarked) [Example 31, 3-[4-(4-Bromophenyl)-1,3-thiazol-2-yl]-5-methyl-1,3-oxazolidin-2-one] | 68.8 nM | 191 to 193 °C | – | – |
| CCC1(CC)COC(=O)N1c1nc(-c2ccc(C#N)cc2)cs1 [Example 19, 4-[2-(4,4-Diethyl-2-oxo-1,3-oxazolidin-3-yl)-1,3-thiazol-4-yl]benzonitrile] | 0.45 nM | 145 to 147 °C | – | – |
| CC1(C)COC(=O)N1c1nc(-c2cccc(C#N)c2)cs1 [Example 52, 3-[2-(4,4-dimethyl-2-oxo-1,3-oxazolidin-3-yl)-1,3-thiazol-4-yl]benzonitrile] | – | 181 to 183 °C | 95% | – |
| CC[C@H]1COC(=O)N1c1nc(-c2ccc(C#N)cc2)c(Cl)s1 [Example 14, 4-{5-Chloro-2-[(4S)-4-ethyl-2-oxo-1,3-oxazolidin-3-yl]-1,3-thiazol-4-yl}benzonitrile] | 294 nM | 157 to 159 °C | – | – |
| N#Cc1ccc(-c2csc(N3C(=O)OCC34CCCC4)n2)cc1 [Example 47, 4-[2-(2-Oxo-3-oxa-1-azaspiro[4.4]non-1-yl)-1,3-thiazol-4-yl]benzonitrile] | 45.4 nM | 196 to 198 °C | – | – |
| CC1(C)COC(=O)N1c1nc(-c2ccc(C#N)s2)cs1 [Example 60, 5-[2-(4,4-dimethyl-2-oxo-1,3-oxazolidin-3-yl)-1,3-thiazol-4-yl]thiophene-2-carbonitrile] | 43.5 nM | 250 to 251 °C | – | – |
| O=C1OC[C@@H](CO)N1c1nc(-c2ccc(Br)cc2)cs1 [Example 71, (4R)-3-[4-(4-Bromophenyl)-1,3-thiazol-2-yl]-4-(hydroxymethyl)-1,3-oxazolidin-2-one] | 565 nM | 189 to 192 °C | – | – |
| CCC[C@@H]1COC(=O)N1c1nc(-c2ccc(C#N)cc2)cs1 [Example 21, 4-{2-[(4R)-2-oxo-4-propyl-1,3-oxazolidin-3-yl]-1,3-thiazol-4-yl}benzonitrile] | 22.5 nM | 131 to 133 °C | – | – |
| N#Cc1ccc(-c2csc(N3C(=O)OC[C@H]3Cc3ccccc3)n2)cc1 [Example 44, 4-{2-[(4R)-4-Benzyl-2-oxo-1,3-oxazolidin-3-yl]-1,3-thiazol-4-yl}benzonitrile] | 191 nM | 174 to 176 °C | – | – |
| CC1(C)COC(=O)N(c2nc(-c3ccc(Br)cc3)cs2)C1 [Example 39, 3-[4-(4-Bromophenyl)-1,3-thiazol-2-yl]-5,5-dimethyl-1,3-oxazinan-2-one] | 1370 nM | 169 to 171 °C | – | – |
| C[C@@H]1COC(=O)N1c1nc(-c2cccc(C#N)c2)cs1 [Example 17, 3-{2-[(4R)-4-Methyl-2-oxo-1,3-oxazolidin-3-yl]-1,3-thiazol-4-yl}benzonitrile] | – | 187 to 189 °C | 84% | – |
| N#Cc1ccc(-c2csc(N3C(=O)OC[C@H]3c3ccccc3)n2)cc1 [Example 45, 4-{2-[(4R)-2-Oxo-4-phenyl-1,3-oxazolidin-3-yl]-1,3-thiazol-4-yl}benzonitrile] | 166 nM | 243 to 245 °C | – | – |
| N#Cc1ccc(-c2csc(N3C(=O)OCC34CC4)n2)cc1 [Example 25, 4-[2-(5-oxo-6-oxa-4-azaspiro[2.4]hept-4-yl)-1,3-thiazol-4-yl]benzonitrile] | 21.6 nM | 219 to 221 °C | – | – |
| C[C@@H]1COC(=O)N1c1nc(-c2cccc(Br)c2)cs1 [Example 16, (4R)-3-[4-(3-bromophenyl)-1,3-thiazol-2-yl]-4-methyl-1,3-oxazolidin-2-one] | 142 nM | 126 to 128 °C | – | – |
| N#Cc1ccc(-c2csc(-n3c(=O)oc4ccccc43)n2)cc1 [Example 54, 4-[2-(2-Oxo-1,3-benzoxazol-3(2H)-yl)-1,3-thiazol-4-yl]benzonitrile] | – | 244 to 245 °C | 50% | – |

| Compound | IC50 [1] | melting point | inhibition at 3 µM [1] | inhibition at 0.003 µM ([1]; % inhibition at 3 nM) |
| --- | --- | --- | --- | --- |
| N#Cc1ccc(-c2csc(N3C(=O)OC[C@H]3CC(F)(F)F)n2)cc1 [Example 69, 4-{2-[(4R)-2-Oxo-4-(2,2,2-trifluoroethyl)-1,3-oxazolidin-3-yl]-1,3-thiazol-4-yl}benzonitrile] | 63.8 nM | 235 to 238 °C | – | – |
| N#Cc1ccc(-c2nc(N3C(=O)OCC34CC4)sc2F)cc1 [Example 55, 4-[5-Fluoro-2-(5-oxo-6-oxa-4-azaspiro[2.4]hept-4-yl)-1,3-thiazol-4-yl]benzonitrile] | 41.9 nM | 222 to 224 °C | – | – |
| Cc1sc(N2C(=O)OCC2(C)C)nc1-c1ccc(Br)cc1 [Example 56, 3-[4-(4-Bromophenyl)-5-methyl-1,3-thiazol-2-yl]-4,4-dimethyl-1,3-oxazolidin-2-one] | 437 nM | 175 to 176.5 °C | – | – |
| CC[C@H]1COC(=O)N1c1nc(-c2ccc(C#N)cc2)c(C#N)s1 [Example 15, 4-(4-Cyanophenyl)-2-[(4S)-4-ethyl-2-oxo-1,3-oxazolidin-3-yl]-1,3-thiazole-5-carbonitrile] | 144 nM | 201 to 203 °C | – | – |
| CC[C@H]1COC(=O)N1c1nc(-c2ccc(Br)cc2)c(Cl)s1 [Example 13, (4S)-3-[4-(4-Bromophenyl)-5-chloro-1,3-thiazol-2-yl]-4-ethyl-1,3-oxazolidin-2-one] | 124 nM | 137 to 139 °C | – | – |
| O=C1OCCN1c1nc(-c2ccc(Br)cc2)cs1 [Example 28, 3-[4-(4-Bromophenyl)-1,3-thiazol-2-yl]-1,3-oxazolidin-2-one] | 158 nM | 197 to 199 °C | – | – |
| CCCC1COC(=O)N1c1nc(-c2ccc(Br)cc2)cs1 (centres unmarked) [Example 29, 3-[4-(4-Bromophenyl)-1,3-thiazol-2-yl]-4-propyl-1,3-oxazolidin-2-one] | 88.8 nM | 156 to 157 °C | – | – |
| CC1(C)COC(=N)N1c1nc(-c2ccc(C#N)cc2)cs1 [Example 63, 4-[2-(2-imino-4,4-dimethyl-1,3-oxazolidin-3-yl)-1,3-thiazol-4-yl]benzonitrile] | 53.4 nM | 158 to 161 °C | – | – |
| COC(=O)[C@@H]1COC(=O)N1c1nc(-c2ccc(Br)cc2)cs1 [Example 70, Methyl (4S)-3-[4-(4-bromophenyl)-1,3-thiazol-2-yl]-2-oxo-1,3-oxazolidine-4-carboxylate] | – | 165 to 167 °C | 90% | – |
| CC1(C)COC(=O)N1c1nc(-c2ccc(C#N)cc2)cs1 [Example 6, 4-[2-(4,4-Dimethyl-2-oxo-1,3-oxazolidin-3-yl)-1,3-thiazol-4-yl]benzonitrile] | 3.1 nM | 183 to 185 °C | – | – |
| CC[C@H]1COC(=O)N1c1nc(-c2ccc(C#N)cc2)c(F)s1 [Example 12, 4-{2-[(4S)-4-Ethyl-2-oxo-1,3-oxazolidin-3-yl]-5-fluoro-1,3-thiazol-4-yl}benzonitrile] | 23.3 nM | 157 to 159 °C | – | – |
| CC1(C)COC(=O)N1c1nc(-c2csc(C#N)c2)cs1 [Example 61, 4-[2-(4,4-Dimethyl-2-oxo-1,3-oxazolidin-3-yl)-1,3-thiazol-4-yl]thiophene-2-carbonitrile] | 37.8 nM | 249 to 251.5 °C | – | – |
| CCC1(CC)COC(=O)N1c1nc(-c2ccc(C#N)cc2)c(F)s1 [Example 53, 4-[2-(4,4-Diethyl-2-oxo-1,3-oxazolidin-3-yl)-5-fluoro-1,3-thiazol-4-yl]benzonitrile] | – | 151 to 153 °C | – | 40% |
| Cc1sc(N2C(=O)OCC2(C)C)nc1-c1ccc(C#N)cc1 [Example 57, 4-[2-(4,4-Dimethyl-2-oxo-1,3-oxazolidin-3-yl)-5-methyl-1,3-thiazol-4-yl]benzonitrile] | 101 nM | 192.5 to 193 °C | – | – |
| CCC[C@H]1COC(=O)N1c1nc(-c2ccc(Br)cc2)cs1 [Example 22, (4S)-3-[4-(4-Bromophenyl)-1,3-thiazol-2-yl]-4-propyl-1,3-oxazolidin-2-one] | 64.3 nM | 116 to 118 °C | – | – |
